Measured values reported in article PMC11423305, “Structure-Based Design of CBP/EP300 Degraders: When Cooperativity Overcomes Affinity” (JACS Au, 2024).
“Also recorded” adds a separate entry of the source.

Tests used:
Format in all cases: cell-based
EP300 = target: T1, EP300 (Homo sapiens, UniProt Q09472); assay: Quantification of EP300 degradation by Western blotting in LP1 cells; conditions: 5 μM compound, 16 h, Western blot
T1 construct: quantification of CBP and EP300 levels by Western blotting following 16 h treatment of LP1 cells; endogenous in cells; host or cells: LP1 cells
T1 sequence (Q09472 whole entry): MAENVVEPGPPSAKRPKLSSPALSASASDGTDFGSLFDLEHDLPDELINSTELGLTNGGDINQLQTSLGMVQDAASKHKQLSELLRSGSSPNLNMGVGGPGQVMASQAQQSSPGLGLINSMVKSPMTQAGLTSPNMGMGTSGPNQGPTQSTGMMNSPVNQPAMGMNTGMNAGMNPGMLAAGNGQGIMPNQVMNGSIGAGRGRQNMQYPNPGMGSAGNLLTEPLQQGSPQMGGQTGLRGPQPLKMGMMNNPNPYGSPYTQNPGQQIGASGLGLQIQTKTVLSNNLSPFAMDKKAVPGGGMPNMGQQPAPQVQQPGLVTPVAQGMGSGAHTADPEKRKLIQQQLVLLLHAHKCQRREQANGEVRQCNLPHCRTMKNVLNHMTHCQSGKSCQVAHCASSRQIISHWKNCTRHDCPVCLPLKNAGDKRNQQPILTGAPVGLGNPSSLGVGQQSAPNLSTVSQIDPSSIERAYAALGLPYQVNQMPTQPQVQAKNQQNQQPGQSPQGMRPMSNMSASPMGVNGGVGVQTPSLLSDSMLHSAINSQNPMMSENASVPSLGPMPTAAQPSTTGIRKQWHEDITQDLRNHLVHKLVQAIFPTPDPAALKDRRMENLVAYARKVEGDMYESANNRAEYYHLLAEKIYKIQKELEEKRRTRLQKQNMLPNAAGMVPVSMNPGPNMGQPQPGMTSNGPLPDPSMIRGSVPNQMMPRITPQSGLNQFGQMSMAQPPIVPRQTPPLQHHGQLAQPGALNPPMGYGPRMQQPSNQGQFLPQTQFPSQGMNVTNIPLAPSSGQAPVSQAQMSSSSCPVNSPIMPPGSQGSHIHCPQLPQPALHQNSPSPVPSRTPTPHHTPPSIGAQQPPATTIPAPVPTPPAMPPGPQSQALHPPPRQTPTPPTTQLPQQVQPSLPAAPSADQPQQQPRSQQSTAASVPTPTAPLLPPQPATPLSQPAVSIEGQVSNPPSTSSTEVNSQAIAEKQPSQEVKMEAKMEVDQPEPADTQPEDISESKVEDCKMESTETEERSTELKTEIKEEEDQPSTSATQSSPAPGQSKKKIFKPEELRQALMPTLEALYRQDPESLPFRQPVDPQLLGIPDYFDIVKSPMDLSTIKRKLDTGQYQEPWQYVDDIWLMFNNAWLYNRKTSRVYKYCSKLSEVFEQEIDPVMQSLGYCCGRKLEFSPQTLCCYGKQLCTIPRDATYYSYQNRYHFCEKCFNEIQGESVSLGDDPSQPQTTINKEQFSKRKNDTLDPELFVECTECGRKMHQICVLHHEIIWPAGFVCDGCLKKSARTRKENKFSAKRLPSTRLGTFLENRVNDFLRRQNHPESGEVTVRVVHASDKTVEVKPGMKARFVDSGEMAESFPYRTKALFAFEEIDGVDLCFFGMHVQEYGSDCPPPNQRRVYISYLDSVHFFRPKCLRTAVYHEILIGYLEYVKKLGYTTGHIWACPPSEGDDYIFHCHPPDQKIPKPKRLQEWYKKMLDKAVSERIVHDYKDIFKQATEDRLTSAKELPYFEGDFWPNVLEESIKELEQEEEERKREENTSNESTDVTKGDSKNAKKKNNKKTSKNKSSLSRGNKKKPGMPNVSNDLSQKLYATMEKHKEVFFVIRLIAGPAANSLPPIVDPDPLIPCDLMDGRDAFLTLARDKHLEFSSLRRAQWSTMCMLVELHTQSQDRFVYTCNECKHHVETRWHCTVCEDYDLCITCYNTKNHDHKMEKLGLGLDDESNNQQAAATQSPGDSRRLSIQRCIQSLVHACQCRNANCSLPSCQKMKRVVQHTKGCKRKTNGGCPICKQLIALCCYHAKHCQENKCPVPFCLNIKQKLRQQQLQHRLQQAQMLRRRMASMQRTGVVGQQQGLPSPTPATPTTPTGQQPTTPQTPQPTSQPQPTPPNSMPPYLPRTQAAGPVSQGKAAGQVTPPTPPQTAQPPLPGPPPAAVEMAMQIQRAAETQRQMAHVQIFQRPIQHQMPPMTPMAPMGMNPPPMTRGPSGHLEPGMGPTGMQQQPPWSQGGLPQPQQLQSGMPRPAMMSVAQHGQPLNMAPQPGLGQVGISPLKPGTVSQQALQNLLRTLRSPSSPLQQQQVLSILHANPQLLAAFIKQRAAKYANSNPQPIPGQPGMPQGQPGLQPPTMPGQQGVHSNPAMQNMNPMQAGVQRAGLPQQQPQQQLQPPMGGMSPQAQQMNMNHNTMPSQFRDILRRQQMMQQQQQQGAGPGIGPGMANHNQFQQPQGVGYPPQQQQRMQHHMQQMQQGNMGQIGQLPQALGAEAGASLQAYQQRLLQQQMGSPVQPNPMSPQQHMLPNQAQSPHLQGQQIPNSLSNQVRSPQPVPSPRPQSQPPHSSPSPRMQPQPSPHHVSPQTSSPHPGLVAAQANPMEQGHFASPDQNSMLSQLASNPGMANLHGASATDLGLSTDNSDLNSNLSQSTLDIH
Experimental: LP1 cells were cultured in DMEM (Gibco, 41966-029) supplemented with 15 % FBS (Sigma, F9665); MM1S and LNCaP cells in RPMI 1640 ATCC modification (Gibco, […]
DMEM/F12 (Gibco, 11320074) supplemented with 1 % non-essential amino acids […]
additionally supplemented with 1 % penicillin/streptomycin (Gibco, 15070-063), and cells maintained in a humidified incubator with 5 % CO2 at 37 °C. The identity of all lines (except for MM1S which were recently purchased from ATCC) was authenticated by STR profiling (performed by Microsynth).
Quantification of CBP/EP300 degradation by Western blotting
LP1 cells plated on 6 well plates were treated with the stated compounds at a final concentration of 0.1 % DMSO for the stated time. Cells were harvested on ice, washed in PBS and lysed in RIPA buffer (50 mM tris pH 7.5, 2 mM EDTA, 150 mM NaCl, 0.5 % sodium deoxycholate, 1 % Triton X100) supplemented with cOmplete ™ protease inhibitor cocktail (Roche). Protein concentrations were determined using the Pierce ™ BCA Protein Assay Kit (Thermo Scientific, 23227) and equal amounts were separated on 4-12 % ExpressPl us™ PAGE gels (GenScript, M41215). Proteins were transferred to PVDF membranes, the membranes were blocked with 5 % milk (Merk Millipore, 115363) in PBS-T and proteins were stained with the following antibodies at 4 °C overnight: CBP […]
BRD4 (Bethyl Laboratories, A301-985A50, diluted 1:2000) and vinculin (Invitrogen, 42H89L44, diluted 1:1000). For detection, membranes were incubated for 1 h at room temperature with HRP-conjugated secondary antibodies (Southern Biotech, anti-rabbit […]
SuperSignal™ West Pico PLUS Chemiluminescent Substrate (Thermo Scientific, 34580) and the Vilber Fusion-FX7 imager. Bands were quantified using ImageJ software and protein levels normalized to protein from DMSO treated cells run on the same membrane. For dose response curves, data was fitted using a four -parameter dose-response curve in GraphPad Prism v. 9.5.1, where the top is fixed at 100 %. The DC50 was defined as the PROTAC concentration resulting in 50 % remaining protein. […]

LNCaP cells = assay: Cell viability (resazurin), LNCaP; conditions: 3 day treatment
Experimental: normalized to DMSO treated lanes on the same membrane. (Several compounds were
measured at the same time, so DMSO treated lanes are replicated here between
Figure S5. Anti-proliferation in additional cell lines. LNCaP (A and C) and SH-SY5Y (B)
cell viability following 3 day compound treatment, and LNCaP following 6 day treatment
(D), determined using resazurin.
After 3 days of treatment, dCE-2 only has a mild effect on the proliferation of LNCaP and
SH-SY5Y cells (Figure S5A and B).
the new CBP/EP300 PROTACs CBPD -268 and CBPD-4092,3 which have enhanced anti-
proliferative activity in LNcaP cells relative to their parent inhibitor s. However, although
these PROTACs have effects at very low concentrations, their effect plateaus and a
substantial proportion of cells remain viable at high compound concentrations. Similarly,
degradation of CBP and EP300, the maximal effect of this PROTAC is also limited under
the conditions we used (Figure S5C). Through this work it was clear to us that these […]
proliferation. […]
concentrations of CRBN, as determined through competition with acetylated peptide […]
Fluorescence (excitation = 560 nm, emission = 590 nm) was measured using a
spectraMax M5 microplate reader (Molecular Devices) and cell viability was calculated […]
values were calculated as the concentration required to inhibit cell viability to 50 % […]

CRBN and CBP-BRD = CRBN and CBP-BRD (Homo sapiens, UniProt Q92793+Q96SW2); assay: FluoPPI cellular ternary complex formation, CBP-BRD; conditions: U2OS cells, 6 h
Sequence of CRBN and CBP-BRD (Q92793 1081-1211): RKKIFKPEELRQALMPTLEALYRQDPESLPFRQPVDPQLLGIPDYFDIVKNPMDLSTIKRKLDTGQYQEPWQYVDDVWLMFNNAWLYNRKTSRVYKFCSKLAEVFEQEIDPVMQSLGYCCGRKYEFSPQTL
Sequence of CRBN and CBP-BRD (Q96SW2 whole entry): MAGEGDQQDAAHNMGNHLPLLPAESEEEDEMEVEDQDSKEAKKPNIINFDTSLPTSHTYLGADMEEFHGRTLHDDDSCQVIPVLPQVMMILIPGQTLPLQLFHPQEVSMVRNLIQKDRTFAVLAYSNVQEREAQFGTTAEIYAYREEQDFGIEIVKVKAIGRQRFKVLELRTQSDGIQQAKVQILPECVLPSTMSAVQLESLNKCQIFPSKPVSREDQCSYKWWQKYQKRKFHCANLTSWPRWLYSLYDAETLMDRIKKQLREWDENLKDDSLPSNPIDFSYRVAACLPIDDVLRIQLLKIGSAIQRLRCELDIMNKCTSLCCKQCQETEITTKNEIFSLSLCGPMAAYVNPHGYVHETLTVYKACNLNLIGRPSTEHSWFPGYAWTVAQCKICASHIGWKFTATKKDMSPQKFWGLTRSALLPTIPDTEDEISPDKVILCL

## Cc1cc2c(NC(=O)c3cc(NC(=O)CCCCCCCCCCNc4cccc5c4C(=O)N(C4CCC(=O)NC4=O)C5=O)cc(-c4ccn(C)n4)c3)cccc2nn1 (stereo not drawn) [dCE-2]
EP300
  % remaining EP300: 43%
LNCaP cells
  effect on proliferation of LNCaP cells: mild effect; also recorded: limited effect
CRBN and CBP-BRD
  ternary complex formation in cells with CRBN and CBP-BRD: good ternary complex formation
